Laboratory results as given in PubChem BioAssay (NCI).
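A five-concentration, 48-hour dose response in 96-well plates underlies each endpoint, interpolated linearly between surrounding concentrations. TGI is the concentration that stops growth completely.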

Legend:
Assay in all cases: growth of human tumour cells (NCI), 48 h
KM12 colon = system: KM12 colon
COLO 205 colon = system: COLO 205 colon
SR leukemia = system: SR leukemia
SNB-19 CNS = system: SNB-19 CNS
BT-549 breast = system: BT-549 breast
MDA-MB-231 breast = system: MDA-MB-231 breast
CAKI-1 renal = system: CAKI-1 renal
SF-295 CNS = system: SF-295 CNS
U251 CNS = system: U251 CNS
SF-268 CNS = system: SF-268 CNS
786-0 renal = system: 786-0 renal
HCT-15 colon = system: HCT-15 colon
UACC-257 melanoma = system: UACC-257 melanoma
NCI-H23 lung = system: NCI-H23 lung
TK-10 renal = system: TK-10 renal
CCRF-CEM leukemia = system: CCRF-CEM leukemia
UO-31 renal = system: UO-31 renal
LOX IMVI melanoma = system: LOX IMVI melanoma
IGROV1 ovarian = system: IGROV1 ovarian
HCC-2998 colon = system: HCC-2998 colon
HOP-62 NSCLC = system: HOP-62 NSCLC
NCI-H226 lung = system: NCI-H226 lung
MDA-MB-435 = system: MDA-MB-435
A498 renal = system: A498 renal
SF-539 CNS = system: SF-539 CNS
SK-MEL-5 melanoma = system: SK-MEL-5 melanoma
HOP-92 NSCLC = system: HOP-92 NSCLC
K-562 leukemia = system: K-562 leukemia
SNB-75 CNS = system: SNB-75 CNS
EKVX NSCLC = system: EKVX NSCLC
HL-60(TB) leukemia = system: HL-60(TB) leukemia
OVCAR-8 ovarian = system: OVCAR-8 ovarian
MALME-3M melanoma = system: MALME-3M melanoma
RPMI-8226 leukemia = system: RPMI-8226 leukemia
SN12C renal = system: SN12C renal
DU-145 prostate = system: DU-145 prostate
HS 578T breast = system: HS 578T breast
MCF7 breast = system: MCF7 breast
MOLT-4 leukemia = system: MOLT-4 leukemia
SK-MEL-28 melanoma = system: SK-MEL-28 melanoma
OVCAR-4 ovarian = system: OVCAR-4 ovarian
A549 NSCLC = system: A549 NSCLC
NCI-H522 lung = system: NCI-H522 lung
M14 melanoma = system: M14 melanoma
SW-620 colon = system: SW-620 colon
NCI-H460 lung = system: NCI-H460 lung
SK-MEL-2 melanoma = system: SK-MEL-2 melanoma
OVCAR-3 ovarian = system: OVCAR-3 ovarian
ACHN renal = system: ACHN renal
HT29 colon = system: HT29 colon
PC-3 prostate = system: PC-3 prostate
MDA-N = system: MDA-N
HCT-116 colon = system: HCT-116 colon
OVCAR-5 ovarian = system: OVCAR-5 ovarian
NCI/ADR-RES ovarian = system: NCI/ADR-RES ovarian
RXF 393 renal = system: RXF 393 renal
SK-OV-3 ovarian = system: SK-OV-3 ovarian
UACC-62 melanoma = system: UACC-62 melanoma
T-47D breast = system: T-47D breast

Compound `CC(=O)c1cc2ccccc2oc1=O` has a TGI (KM12 colon) of over 100 µM, a TGI (COLO 205 colon) of over 100 µM and a TGI (SR leukemia) of over 100 µM. For the same compound, the TGI (SNB-19 CNS) was over 100 µM, the TGI (BT-549 breast) was over 100 µM and the TGI (MDA-MB-231 breast) was over 100 µM. For the same compound, the TGI (CAKI-1 renal) was over 100 µM, the TGI (SF-295 CNS) was over 100 µM and the TGI (U251 CNS) was over 100 µM. For the same compound, the TGI (SF-268 CNS) was over 100 µM, the TGI (786-0 renal) was over 100 µM and the TGI (HCT-15 colon) was over 100 µM. The TGI (UACC-257 melanoma) was over 100 µM, the TGI (NCI-H23 lung) was over 100 µM and the TGI (TK-10 renal) was over 100 µM. For the same compound, the TGI (CCRF-CEM leukemia) was over 100 µM, the TGI (UO-31 renal) was over 100 µM and the TGI (LOX IMVI melanoma) was over 100 µM. The TGI (IGROV1 ovarian) was over 100 µM, the TGI (HCC-2998 colon) was over 100 µM and the TGI (HOP-62 NSCLC) was over 100 µM. The TGI (NCI-H226 lung) was over 100 µM, the TGI (MDA-MB-435) was over 100 µM and the TGI (A498 renal) was over 100 µM. It also gave a TGI (SF-539 CNS) of over 100 µM, a TGI (SK-MEL-5 melanoma) of over 100 µM and a TGI (HOP-92 NSCLC) of over 100 µM. It also gave a TGI (K-562 leukemia) of over 100 µM, a TGI (SNB-75 CNS) of over 100 µM and a TGI (EKVX NSCLC) of over 100 µM. For the same compound, the TGI (HL-60(TB) leukemia) was over 100 µM, the TGI (OVCAR-8 ovarian) was over 100 µM and the TGI (MALME-3M melanoma) was over 100 µM. For the same compound, the TGI (RPMI-8226 leukemia) was over 100 µM, the TGI (SN12C renal) was over 100 µM and the TGI (DU-145 prostate) was over 100 µM. The TGI (HS 578T breast) was over 100 µM, the TGI (MCF7 breast) was over 100 µM and the TGI (MOLT-4 leukemia) was over 100 µM. It also gave a TGI (SK-MEL-28 melanoma) of over 100 µM, a TGI (OVCAR-4 ovarian) of over 100 µM and a TGI (A549 NSCLC) of over 100 µM. For the same compound, the TGI (NCI-H522 lung) was over 100 µM, the TGI (M14 melanoma) was over 100 µM and the TGI (SW-620 colon) was over 100 µM. The TGI (NCI-H460 lung) was over 100 µM, the TGI (SK-MEL-2 melanoma) was over 100 µM and the TGI (OVCAR-3 ovarian) was over 100 µM. It also gave a TGI (ACHN renal) of over 100 µM, a TGI (HT29 colon) of over 100 µM and a TGI (PC-3 prostate) of over 100 µM. For the same compound, the TGI (MDA-N) was over 100 µM, the TGI (HCT-116 colon) was over 100 µM and the TGI (OVCAR-5 ovarian) was over 100 µM. For the same compound, the TGI (NCI/ADR-RES ovarian) was over 100 µM and the TGI (RXF 393 renal) was over 100 µM.

`CCOC(=O)CCC(NC(=O)c1ccc(OCc2ccc3nc(-c4ccccc4)c(Cl)nc3c2)cc1)C(=O)OCC` (stereo not drawn) gave a TGI (KM12 colon) of over 31.6 µM, a TGI (COLO 205 colon) of over 100 µM and a TGI (SR leukemia) of over 31.6 µM. It also gave a TGI (SNB-19 CNS) of 31.1 µM, a TGI (BT-549 breast) of over 31.6 µM and a TGI (MDA-MB-231 breast) of over 67.9 µM. The TGI (CAKI-1 renal) was over 100 µM, the TGI (SF-295 CNS) was over 31.6 µM and the TGI (U251 CNS) was over 31.6 µM. For the same compound, the TGI (SF-268 CNS) was 28.1 µM, the TGI (786-0 renal) was over 31.6 µM and the TGI (HCT-15 colon) was over 31.6 µM. The TGI (UACC-257 melanoma) was over 31.6 µM, the TGI (NCI-H23 lung) was over 31.6 µM and the TGI (TK-10 renal) was over 31.6 µM. It also gave a TGI (CCRF-CEM leukemia) of over 31.6 µM, a TGI (UO-31 renal) of over 31.6 µM and a TGI (LOX IMVI melanoma) of over 100 µM. For the same compound, the TGI (IGROV1 ovarian) was over 31.6 µM, the TGI (HCC-2998 colon) was over 31.6 µM and the TGI (SK-OV-3 ovarian) was over 100 µM. It also gave a TGI (HOP-62 NSCLC) of over 31.6 µM, a TGI (NCI-H226 lung) of 68.8 µM and a TGI (MDA-MB-435) of over 31.6 µM. The TGI (A498 renal) was 77.4 µM, the TGI (SF-539 CNS) was 28.7 µM and the TGI (SK-MEL-5 melanoma) was over 31.6 µM. For the same compound, the TGI (HOP-92 NSCLC) was 25.5 µM, the TGI (K-562 leukemia) was over 100 µM and the TGI (SNB-75 CNS) was 30.3 µM. For the same compound, the TGI (EKVX NSCLC) was over 31.6 µM, the TGI (HL-60(TB) leukemia) was over 31.6 µM and the TGI (OVCAR-8 ovarian) was 25.3 µM. It also gave a TGI (MALME-3M melanoma) of over 100 µM, a TGI (UACC-62 melanoma) of over 31.6 µM and a TGI (RPMI-8226 leukemia) of over 31.6 µM. The TGI (SN12C renal) was over 100 µM, the TGI (DU-145 prostate) was over 31.6 µM and the TGI (HS 578T breast) was over 31.6 µM. For the same compound, the TGI (MCF7 breast) was over 31.6 µM, the TGI (MOLT-4 leukemia) was over 31.6 µM and the TGI (SK-MEL-28 melanoma) was over 31.6 µM. It also gave a TGI (OVCAR-4 ovarian) of over 31.6 µM, a TGI (A549 NSCLC) of over 100 µM and a TGI (NCI-H522 lung) of over 31.6 µM. It also gave a TGI (M14 melanoma) of over 31.6 µM, a TGI (SW-620 colon) of over 31.6 µM and a TGI (NCI-H460 lung) of over 31.6 µM. For the same compound, the TGI (SK-MEL-2 melanoma) was over 100 µM, the TGI (OVCAR-3 ovarian) was over 31.6 µM and the TGI (ACHN renal) was over 31.6 µM. The TGI (HT29 colon) was over 31.6 µM, the TGI (MDA-N) was over 100 µM and the TGI (HCT-116 colon) was over 31.6 µM. It also gave a TGI (T-47D breast) of over 31.6 µM, a TGI (OVCAR-5 ovarian) of over 31.6 µM and a TGI (NCI/ADR-RES ovarian) of over 31.6 µM. It also gave a TGI (RXF 393 renal) of 8.6 µM.

Work on `C(=C\c1ccco1)/c1cccc(/C=C/c2ccco2)n1` yielded a TGI (KM12 colon) of over 50 µM, a TGI (COLO 205 colon) of over 50 µM and a TGI (SR leukemia) of over 50 µM. The TGI (SNB-19 CNS) was over 50 µM, the TGI (BT-549 breast) was over 50 µM and the TGI (CAKI-1 renal) was over 50 µM. For the same compound, the TGI (SF-295 CNS) was over 50 µM, the TGI (SF-268 CNS) was over 50 µM and the TGI (786-0 renal) was over 50 µM. The TGI (HCT-15 colon) was over 50 µM, the TGI (UACC-257 melanoma) was over 50 µM and the TGI (NCI-H23 lung) was over 50 µM. The TGI (TK-10 renal) was over 50 µM, the TGI (CCRF-CEM leukemia) was over 50 µM and the TGI (UO-31 renal) was over 50 µM. It also gave a TGI (LOX IMVI melanoma) of over 50 µM, a TGI (IGROV1 ovarian) of over 50 µM and a TGI (HCC-2998 colon) of over 50 µM. For the same compound, the TGI (SK-OV-3 ovarian) was over 50 µM, the TGI (HOP-62 NSCLC) was over 50 µM and the TGI (NCI-H226 lung) was over 50 µM. For the same compound, the TGI (MDA-MB-435) was over 50 µM, the TGI (A498 renal) was over 50 µM and the TGI (SF-539 CNS) was over 50 µM. For the same compound, the TGI (SK-MEL-5 melanoma) was over 50 µM, the TGI (HOP-92 NSCLC) was over 50 µM and the TGI (K-562 leukemia) was over 50 µM. The TGI (SNB-75 CNS) was 33.1 µM, the TGI (EKVX NSCLC) was over 50 µM and the TGI (HL-60(TB) leukemia) was over 50 µM. The TGI (OVCAR-8 ovarian) was over 50 µM, the TGI (MALME-3M melanoma) was over 50 µM and the TGI (UACC-62 melanoma) was over 50 µM. The TGI (RPMI-8226 leukemia) was over 50 µM, the TGI (SN12C renal) was over 50 µM and the TGI (DU-145 prostate) was over 50 µM. It also gave a TGI (HS 578T breast) of over 50 µM, a TGI (MCF7 breast) of over 50 µM and a TGI (MOLT-4 leukemia) of over 50 µM. For the same compound, the TGI (SK-MEL-28 melanoma) was over 50 µM, the TGI (OVCAR-4 ovarian) was over 50 µM and the TGI (A549 NSCLC) was over 50 µM. For the same compound, the TGI (NCI-H522 lung) was over 50 µM, the TGI (M14 melanoma) was over 50 µM and the TGI (SW-620 colon) was over 50 µM. For the same compound, the TGI (NCI-H460 lung) was over 50 µM, the TGI (OVCAR-3 ovarian) was over 50 µM and the TGI (ACHN renal) was over 50 µM. It also gave a TGI (HT29 colon) of over 50 µM, a TGI (MDA-N) of over 50 µM and a TGI (HCT-116 colon) of over 50 µM. For the same compound, the TGI (OVCAR-5 ovarian) was over 50 µM, the TGI (NCI/ADR-RES ovarian) was over 50 µM and the TGI (RXF 393 renal) was over 50 µM.
